From patent US5843917A, “5-Fluorouracil derivatives” (priority 1993, dated 1998)
Where two headings read alike, the source gives them in different places.

Assays:
DPD = experiment: Protection of 5-FU from DPD catabolism by release of 5-EU from nucleosides (urinary recovery of 5-FU in rats); type: in vivo; conditions: rat; oral predose 0.03, 0.3 and 3.0 mg/kg, then 25 mg/kg 5-FU
Experimental: 5-FU and 5-EU bases and nucleosides were dissolved in deionized HPLC grade water immediately prior to dosing. […] 5-EU and 5-EU nucleosides were dosed to animals 0.5 hr prior to dosing with 5-FU and 5-FU nucleosides. Dosing was routinely performed between 11 am and 1 pm. An approximate volume of 300 μL was used for each dose. Rats were placed in individual Nalge metabolism cages, which separate urine and faeces, and continued on a 12 hr light/dark schedule post-dosing.
5 ml of a thoroughly mixed urine sample was filtered through a Millex GS 0.22 μm filter (Millipore, Bedford, Mass.) and frozen prior to HPLC analysis. 1 ml of the thawed primary filtered solution was diluted with 2 ml of water and particulates were removed from this diluted stock solution using a Centrifree micro partition system (Amicon Division, W. R. Grace and Co., Beverly Mass.). […]

[1] = literature reports; combination with 5-fluorouracil or its prodrug; cited from earlier work
uracil reductase = conditions: cited from earlier work
[2] = Urinary recovery of 5-FU in rats dosed with the succinate linked nucleoside; type: in vivo; conditions: rat; 25 mg/kg 5-FU equivalent
Experimental: (§1) 5-FU and 5-EU bases and nucleosides were dissolved in deionized HPLC grade water immediately prior to dosing. All animals were dosed once, p.o. via gastric gavage at the indicated mg/kg dose for each compound (See Results Section and Figures). 5-EU and 5-EU nucleosides were dosed to animals 0.5 hr prior to dosing with 5-FU and 5-FU nucleosides. Dosing was routinely performed between 11 am and 1 pm. An approximate volume of 300 μL was used for each dose. Rats were placed in individual Nalge metabolism cages, which separate urine and faeces, and continued on a 12 hr light/dark schedule post-dosing. Mice were treated post-dose in a similar manner with the exception that 5 mice were housed per cage.
Urine from each cage was collected into 0-24 hr and 24-48 hr post-dose fractions. […]
(§2) 5 ml of a thoroughly mixed urine sample was filtered through a Millex GS 0.22 μm filter (Millipore, Bedford, Mass.) and frozen prior to HPLC analysis. […] 100 μL of this solution was quantitated for 5-FU by HPLC on a Waters Associates System (Waters Associates, Milford, Mass.) equipped with a Waters 600E system controller, a Waters 600 solvent delivery system, a Waters model 712 WISP automated sample injector, a Waters 484 tuneable absorbance detector, and a Waters 991 photodiode array detector. […]
Rats were dosed 25 mg/kg 5-FU equivalent with the succinate linked nucleosides. […] 5-FU was not detected in the 24-48 hr urine.

[3] = Urinary recovery of 5-FU in mice dosed with 5-FU or the succinate linked nucleoside; type: in vivo; conditions: mouse; for dose excreted: urine, po, 5 mg/kg
Experimental: as §1
(§3) Urine from each cage was collected into 0-24 hr and 24-48 hr post-dose fractions. Cages were rinsed with deionized water prior to collection of each fraction. The combined volume of urine and rinse was brought to a standard volume with deionized water.
5-FU recovery in mouse urine was determined as above with three exceptions: a Phenomenex 5 μm Extrasil C-18 column (250mm×4.6 mm i.d.; Phenomenex, Torrance, Calif.) was used; an identical gradient with buffer A as aqueous 50 mM formic acid, pH 3.5, with 0.5% acetonitrile and buffer B as aqueous 50 mM formic acid, pH 3.5, with 60% acetonitrile was used; the standard curve was prepared by diluting known concentrations of 5-FU into undosed mouse urine and eluting with the latter described gradient and buffers, instead of isocratic conditions.
For these studies mice were dosed with either 5 mg/kg 5-FU or given an equivalent dose of 5-FU via the succinate linked nucleoside. The urinary recovery of 5-FU was measured in the presence and absence of 5-EU (Table 2). […] When mice were predosed with 5-EU followed by dosing with 5-FU, the urinary recovery of 5-FU was 50%. Mice dosed with the succinate linked nucleoside gave 25-30% urinary recovery of 5-FU available from the linked compound.

[4] = In vivo antitumor testing with s.c. murine Colon 38 carcinoma in C57BL/6 female mice; conditions: mouse, in vivo, sc, mice with s.c. Colon 38
Experimental: (§4) In vivo antitumor testing with murine Colon 38 was conducted in-house. C57BL/6 female mice were housed in sterile, polycarbonate, filter-capped Microisolator cages (Lab Products, Inc., Maywood, N.J.) containing sterile hardwood bedding. Mice were fed sterile rodent chow and filter-sterilised water ad libitum. All manipulations of these mice were conducted in laminar-flow biosafety hoods. Colon 38 carcinoma was obtained from the Development Therapeutics Program Tumour Repository. Mice were implanted s.c. with 70 mg tumour fragments using a number 13 trocar. There were 10 mice in the control group that received tumour implants without drug treatment. There were 5 mice in each group treated with the dose and compounds as described below. Treatment began on day 16 post tumour implant and compounds were dosed once/day for 9 days. 5-FU was dosed at 15, 20, 25, 30, and 40 mg/kg.. […] Tumour weights were calculated three times per week from measurements of tumour length and width. Antitumor activity was expressed as the days delay in tumour growth (T-C). T-C was calculated as the difference in the median of days for treated animals minus control animals for tumour mass to double twice post initial day of dosing (Day 16). Tumour-free survivors were not excluded from T-C calculations. Surviving mice were sacrificed after day 56.

Colon 38 = experiment: as above
Experimental: as §4

[5] = Urinary recovery of 5-FU in rats for 5-FU and various 5-FU containing nucleosides; type: in vivo; conditions: rat, urine, po, p.o., read-out: % 5-FU Recovery 0-24 hr Urine (Average of Two Experiments)
Experimental: as §1, §3
as §2, with “detector. For quantitiation of 5-FU in rat urine, HPLC was performed on a 250 mm×4.6 mm YMC AQ-303 S-5 120A ODS analytical column (YMC, Morris Plains, N.J.) or on a Microsorb C18 analytical column with identical dimensions (Rainin Instrument Co., Woburn, Mass.).” for “detector.”
Plots of UV peak area vs 5-FU concentration were linear between 5 μM and 100 μM. The total urinary recovery of 5-FU was determined by multiplication of the nmoles of 5-FU determined from the standard curve by the dilution factor of 3 (above) and by the standard volume of urine collected. […]

C#Cc1cn([C@H]2C[C@H](O)[C@@H](COP(=O)(O)O)O2)c(=O)[nH]c1=O [2'-deoxy-5'-monophosphate of 5-EU, 1-(2-Deoxy-β-D-Erythro-Pentofuranosyl)-5-Ethynyluracil 5'-Monophosphate]
dose response for urinary recovery of 5-FU (DPD): A direct dose response for urinary recovery of 5-FU was observed

O=c1[nH]c(=O)n([C@H]2C[C@H](O)[C@@H](CO)O2)cc1C=CBr [5-(2-bromovinyl)-2'-deoxyuridine]
effect on 5-fluorouracil metabolism and antitumour activity [1]: enhances the antitumour activity of 5-fluorouracil and 5-deoxy-5-fluorouridine

O=c1[nH]cc(C=CBr)c(=O)[nH]1 [5-(2-bromovinyl)-uracil (BVU), 5-(2-bromovinyl)-uracil]
inhibition of dihydrothymidine dehydrogenase (uracil reductase; Cancer Research 46, 1094, 1986): is an inhibitor of dihydrothymidine dehydrogenase | effect on 5-fluorouracil metabolism and antitumour activity [1]: retards the metabolism of 5-fluorouracil and enhances its antitumour activity

C#Cc1cn([C@H]2C[C@H](OC(=O)CCC(=O)O[C@H]3C[C@H](n4cc(F)c(=O)[nH]c4=O)O[C@@H]3CO)[C@@H](CO)O2)c(=O)[nH]c1=O [Example 1, 5-Ethynyl-5"-fluoro-3',3"-O-succinylbis-(1-(2-deoxy-β-D-erythro-pentofuranosyl)uracil)]
5-FU in the 24-48 hr urine [2]: not detected | improvement of 5-FU urinary recovery by 5-EU predose ([3]; predosed with 5-EU then succinate linked nucleoside): no improvement | MTD ([4]; 5-FU and 5-EU equivalents, read-out: toxic at doses, as 5-FU and 5-EU equivalents): > 4 mg/kg | MTD ([4]; dose of the linked compound, once/day for 9 days, read-out: toxic at doses): > 17.9 mg/kg | Tumour-free Survivors (Day 56) (Colon 38; 1 mg/kg 5-FU equivalent): 0/5 | Antitumour Activity T-C (Colon 38; 1 mg/kg 5-FU equivalent, once/day for 9 days): 12.9 days | Tumour-free Survivors (Day 56) (Colon 38; 2 mg/kg 5-FU equivalent): 2/5 | Antitumour Activity T-C (Colon 38; 2 mg/kg 5-FU equivalent, once/day for 9 days): > 27.9 days

C#Cc1c[nH]c(=O)[nH]c1=O [Example 5-EU, 5-ethynyluracil]
potency as an inactivator of uracil reductase relative to BVU (uracil reductase; relative to BVU): 100 fold

O=c1[nH]cc(F)c(=O)[nH]1 [Example 5-FU, 5-fluorouracil]
dose excreted at 24 h ([5]; 5 mg/kg, 5-FU 5 mg/kg, 5-EU predose 2 mg/kg): 52% | dose excreted at 24 h ([5]; 5 mg/kg, 5-FU 5 mg/kg, no predose): < 5% | dose excreted at 24 h ([5]; 25 mg/kg, 5-FU 25 mg/kg, 5-EU predose 0.03 mg/kg): 43 to 63% | dose excreted ([3]; 5 mg/kg 5-FU, predosed with 5-EU, read-out: urinary recovery of 5-FU): 50% | dose excreted ([3]; 5 mg/kg equivalent 5-FU, 5-EU predose 2 mg/kg, Table 2, read-out: Recovery 5-FU (%)): 51% | dose excreted ([3]; 5 mg/kg equivalent 5-FU, no predose, Table 2, read-out: Recovery 5-FU (%)): 0% | 5-FU detection in the urine ([3]; 5 mg/kg 5-FU, without 5-EU predose): could not be detected | Tumour-free Survivors (Day 56) (Colon 38; 25 mg/kg 5-FU equivalent): 0/5 | Antitumour Activity T-C (Colon 38; 25 mg/kg 5-FU equivalent, once/day for 9 days): 14.9 days | Tumour-free Survivors (Day 56) (Colon 38; 30 mg/kg 5-FU equivalent): 0/5 | Antitumour Activity T-C (Colon 38; 30 mg/kg 5-FU equivalent, once/day for 9 days): 23.6 days | Tumour-free Survivors (Day 56) (Colon 38; 40 mg/kg 5-FU equivalent): 0/5 | Antitumour Activity T-C (column entry Toxic) (Colon 38; 40 mg/kg 5-FU equivalent, once/day for 9 days): Toxic

C#Cc1cn([C@@H]2O[C@H](CO)[C@@H](O)[C@@H]2O)c(=O)[nH]c1=O [arabinoside of 5-EU]
dose response for urinary recovery of 5-FU (DPD): A direct dose response for urinary recovery of 5-FU was observed
